≈ marks a conversion by molar mass, not a printed value. Values belong to the molecule of their own block, whether it stands above or below them. Where a SMILES comes first, the peptide text is derived from it. [ ]: non-standard residue; d: D form.
Tests used:
[1] = Stability in mouse whole blood (LC-QTOF MS); assay type: in vitro ADME; details: peptide 1 mg/ml; 0, 15, 30, 60, 120 minutes; compared to P5 control (FIG. 3)
Description: Mouse whole blood was treated with peptide (1 mg/ml) and reacted for 0, 15, 30, 60, and 120 minutes, followed by analyzing the peptides remaining as LC-QTOF MS.

[2] = Determination of solubility; assay type: physicochemical
Description: To 5 mg of each of the peptides synthesized by the above method, a small amount of water or butylene glycol was added to measure solubility.

C57BL/6 mice = experiment: Hair growth promoting efficacy in mice; assay type: in vivo, mouse; details: lower back skin, once a day, after about 4 weeks; P5N 0.1 mM, P5 0.05 and 0.1 mM, MNX 3% (FIG. 11)
Text: It is known that all the hairs of a mouse go through a process in which the hair enters the resting phase at 7 to 8 weeks of age and is converted back to the growing phase. Accordingly, the effect of the peptide of the present invention on the growth phase inducing process was confirmed using C57BL/6 mice. Specifically, 3% of minoxidil (MNX), which is commonly used as a treatment for hair loss and hair growth, on the skin of the lower back of the mouse, the existing adiponectin-derived peptide […] NO: 2), […] and 0.1 mM), and the present peptide […] NO: 2)-NH2) were applied at 0.1 mM concentration, respectively, once a day. Thereafter, hair growth was investigated. As a result, in the group treated with the peptide of the present invention as in the positive controls, it was confirmed […], after about 4 weeks, a proportion of the region where hair was grown in the growth phase among the region where hair was first removed is increased (FIG. 11).

sensitive skin = experiment: Sensitive skin improvement, double-blind application study (lactate test, biopsy); assay type: in vivo, human; details: for proportion of test group improved from sensitive skin to non-sensitive skin: 0.01%, 27 persons per group
Text: In order to classify patients with sensitive skin, a double-blind organ application study was executed by conducting the lactate puncture test (Contact Dermatitis 2010; 62: 137-49), which is the most widely used and known reliable test for diagnosis of sensitive skin (a total of 54 persons, the peptide of the present invention PSN: GLYYF(SEQ ID NO: 2)-NH2 (APNSN) 0.01% vs control (placebo), 27 persons per application group). From the volunteers who agreed to the biopsy (peptide PSN: GLYYF(SEQ ID NO: 2)-NH2 (APNSN) of the present invention 0.01% vs control material (placebo), 8 persons per application group), the skin tissues at the facial baseline and the skin tissues after 8 weeks application were obtained from total 4 sites (for 2 sites per each) by 2 mm punch. For the obtained skin tissues, quantitative PCR analysis and immunohistochemistry were performed for sensitive skin-related genes and markers including adiponectin. […] Further, at the second visit, it could be seen that 29.6% of the test group was improved from the sensitive skin to the non-sensitive skin. […] There was no significant difference between the above two groups (p=0.327, fisher's exact test). Further, at the 3rd visit, the initial sensitive skin improved to non-sensitive skin in 48.1% of the test group, whereas only 14.8% of the control improved to non-sensitive skin, which is the same as at the 2nd visit. […] Further, since the expression of adiponectin was reduced in the patients having sensitive skin, a change in adiponectin gene expression after APNSN treatment could be an important indicator of sensitivity improvement. Therefore, as a result of confirming the expression of adiponectin, the sub-signaling factor P-AMPK of adiponectin and the sensitivity inducing factor TRPV1 (FIG. 10) through biopsy, the expression adiponectin and P-AMPK was increased after application in the test group containing APNSN, whereas the expression of TRPV1 was decreased. […] On the other hand, there was no statistically significant change in the expression of adiponectin in the control after application of the control material.

[3] = water : butylene glycol mixture, Solvent H2O: BG, mixed solvent
[4] = Solvent BG (butylene glycol), single solvent
[5] = biopsy after application (FIG. 10)

SMILES: CC(C)C[C@H](N)C(=O)N[C@@H](Cc1ccc(O)cc1)C(=O)N[C@H](Cc1ccc(O)cc1)C(=O)N[C@@H](Cc1ccccc1)C(=O)O [Peptide P4-4, LYyF (SEQ ID NO: 1)] (H-LY[dY]F-OH; N-terminus assumed)
stability (peptides remaining) [1]: improved stability

SMILES: CC(C)C[C@H](N)C(=O)N[C@@H](Cc1ccc(O)cc1)C(=O)N[C@@H](Cc1ccc(O)cc1)C(=O)N[C@H](Cc1ccccc1)C(=O)O [Peptide P4-5, LYYf (SEQ ID NO: 1)] (H-LYY[dF]-OH; N-terminus assumed)
solubility ([2]; water, Solvent H2O, single solvent): 2500 µg/mL (≈ 4.13 mM)

SMILES: CC(C)C[C@@H](N)C(=O)N[C@@H](Cc1ccc(O)cc1)C(=O)N[C@@H](Cc1ccc(O)cc1)C(=O)N[C@@H](Cc1ccccc1)C(N)=O [Peptide P4-6, lYYF (SEQ ID NO: 1)-NH2] (H-[dL]YYF-NH2)
solubility [2, 3]: 4000 µg/mL (≈ 6.63 mM)

SMILES: CC(C)C[C@H](N)C(=O)N[C@@H](Cc1ccc(O)cc1)C(=O)N[C@@H](Cc1ccc(O)cc1)C(=O)N[C@H](Cc1ccccc1)C(N)=O [Peptide P4-9, LYYf (SEQ ID NO: 1)-NH2] (H-LYY[dF]-NH2)
solubility [2, 3]: 4000 µg/mL (≈ 6.63 mM)

SMILES: CC(C)C[C@H](NC(=O)CN)C(=O)N[C@@H](Cc1ccc(O)cc1)C(=O)N[C@@H](Cc1ccc(O)cc1)C(=O)N[C@@H](Cc1ccccc1)C(=O)O [Peptide P5, GLYYF (SEQ ID NO: 2), reference compound]
proportion of the region where hair was grown in the growth phase (C57BL/6 mice): increased | solubility ([2]; ethanol : propylene glycol mixture, Solvent EtOH: PG (propylene glycol), mixed solvent): 1000 µg/mL (≈ 1.51 mM)

SMILES: CC(C)C[C@H](NC(=O)CN)C(=O)N[C@@H](Cc1ccc(O)cc1)C(=O)N[C@@H](Cc1ccc(O)cc1)C(=O)N[C@@H](Cc1ccccc1)C(N)=O [Peptide P5-5, GLYYF (SEQ ID NO: 2)-NH2]
stability (peptides remaining) [1]: improved stability | proportion of the region where hair was grown in the growth phase (C57BL/6 mice): increased | proportion of test group improved from sensitive skin to non-sensitive skin (sensitive skin; 2nd visit (4 weeks after application)): 29.6% | proportion of test group improved from sensitive skin to non-sensitive skin (sensitive skin; 3rd visit (8 weeks after application)): 48.1% | sensitive skin to non-sensitive skin in lactic acid test (sensitive skin; 2nd and 3rd visit (FIG. 9)): significantly improved | expression of P-AMPK (sensitive skin; [5]): increased | expression of TRPV1 (sensitive skin; [5]): decreased | expression of adiponectin (sensitive skin; [5]): increased | increase of expression of adiponectin compared to before application (sensitive skin; twice a day for 8 weeks, biopsy): more than 4 times

More lines, now with the values ahead:

solubility [2, 4]: 3000 µg/mL (≈ 4.53 mM)
SMILES: CC(C)C[C@@H](NC(=O)CN)C(=O)N[C@@H](Cc1ccc(O)cc1)C(=O)N[C@@H](Cc1ccc(O)cc1)C(=O)N[C@@H](Cc1ccccc1)C(=O)O [Peptide P5-1, GlYYF (SEQ ID NO: 2)]

solubility [2, 3]: 3000 µg/mL (≈ 4.53 mM)
SMILES: CC(C)C[C@H](NC(=O)CN)C(=O)N[C@@H](Cc1ccc(O)cc1)C(=O)N[C@H](Cc1ccc(O)cc1)C(=O)N[C@@H](Cc1ccccc1)C(=O)O [Peptide P5-3, GLYyF (SEQ ID NO: 2)]

solubility [2, 4]: 3000 µg/mL (≈ 4.53 mM)
SMILES: CC(C)C[C@H](NC(=O)CN)C(=O)N[C@@H](Cc1ccc(O)cc1)C(=O)N[C@@H](Cc1ccc(O)cc1)C(=O)N[C@H](Cc1ccccc1)C(=O)O [Peptide P5-4, GLYYf (SEQ ID NO: 2)]

solubility [2, 4]: 3000 µg/mL (≈ 4.54 mM)
SMILES: CC(C)C[C@H](NC(=O)CN)C(=O)N[C@@H](Cc1ccc(O)cc1)C(=O)N[C@H](Cc1ccc(O)cc1)C(=O)N[C@@H](Cc1ccccc1)C(N)=O [Peptide P5-8, GLYyF (SEQ ID NO: 2)-NH2]
